Measurements as given in US20140193529A1, “Modulation of Thymosin Beta-4 in Skin” (AVON PRODUCTS, INC., priority 2013, published 2014).

What was measured:
thymosin beta-4 = assay: Mode of operation of retinol in human skin
[1] = tested on: thymosin beta-4 (TMSB4X) mRNA; assay: Thymosin beta-4 stimulation assay (QUANTIGENE multiplex mRNA assay); assay type: cell-based; details: human dermal fibroblasts, 24 hours
Procedure: Normal human dermal fibroblasts were cultured in 96-well tissue culture-treated plates, containing appropriate culture medium. Stock solutions of actives were made in an appropriate vehicle (water or DMSO). Cells were treated with test material or respective vehicle control diluted in growth medium for 24 hours in a humidified 37° C. incubator with 10% CO2. After incubation, growth medium from each plate was removed and 100 μL, of lysis buffer was added to the wells and placed in 37° C. incubator with 10% CO2 for 30 minutes. At the end of incubation, the cell lysates were collected in freezer plates and placed in −80° C. freezer until analysis. Changes in mRNA for thymosin beta-4 (TMSB4X) after treatment were analyzed using Affymetrix's QUANTIGENE® multiplex assay that employs a branched DNA signal amplification technology, following the manufacturer's instructions (Affymetrix, Calif.). Percent increase in mRNA for thymosin beta-4 (TMSB4X) was calculated by comparing the test results to the control. The percent up-regulation is converted to a scaled score as shown below in Table 2.
A variety of botanical extracts were tested for the ability to up-regulate Thymosin beta-4 according to the method of Example 1. The concentrations of each extract are provided based on the dry weight of the given plant extract, by which is meant the weight of the extract after volatile extraction solvents have been removed. The cells tested were primary human dermal fibroblasts.
Synthetic compounds 1-4 were also tested as active agents for the ability to upregulate thymosin beta-4 according to the method of Example 1.

[2] = tested on: IL-8 gene and protein expression; assay: Anti-inflammatory effect of TB-4 in TNF-alpha treated human dermal fibroblasts (qPCR, ELISA, PCR array); assay type: cell-based
Procedure: Commercially obtained human dermal fibroblasts were treated with tumor necrosis factor alpha for 6 hours to induce inflammation. Cells were either pre-treated with recombinant TB-4 or control media to assess its anti-inflammatory effect. Cell lysates and media were collected and qPCR and ELISA were performed to assess IL-8 gene and protein expression. Human cytokines and chemokines PCR array was also performed to investigate the impact of TB-4 on the expression profile of key secreted proteins in the inflammation pathway. […] Therefore, modulating endogenous TB-4 could be adopted as an avenue to battle inflammatory skin damage resulting from skin chronological aging and photoaging.

Question: For `CC1=C(/C=C/C(C)=C/C=C/C(C)=C/CO)C(C)(C)CCC1` [retinol], which “upregulation of thymosin beta-4” value (thymosin beta-4) is on record?
Answer: The value was “potent upregulator”.

Question: With `CCOCCCNC(=O)c1cc(NC(=O)/C=C/c2ccccc2)ccc1N1CCC(Cc2ccccc2)CC1` [Compound 1] as the molecule, how does the “Thymosin beta-4 (TMSB4X) Degree of Upregulation” value (“Thymosin beta-4 (TMSB4X) Degree” below) ([1]; compound Conc. 0.001%) read?
Answer: Its value is “++ (41-60)”.

Question: `CCc1c(C(=O)N2CCCC2)cnn1-c1ccccc1Cl` [Compound 4] was tested. Which “Thymosin beta-4 (TMSB4X) Degree” value ([1]; compound Conc. 0.00001%) did it give?
Answer: Its value is “+ (21-40)”.

Question: For `Cc1ccc(C(=O)CC(NCc2ccccc2)C(=O)O)cc1` (stereo not shown) [Compound 2], which “Thymosin beta-4 (TMSB4X) Degree” value ([1]; compound Conc. 0.0001%) is on record?
Answer: The value was “+ (21-40)”.

Question: “TB-4: recombinant thymosin beta-4, 43 amino acid peptide, 4.9 kDa (SDKPDMAEIEKFDKSKLKKTETQEKNPLPSKETIEQEKQAGES; UniProt P62328 2-44, looked up)” was tested. Which “regulation of key cytokines and chemokines genes” value ([2]; human cytokines and chemokines PCR array, TNF-alpha treated fibroblasts) did it give?
Answer: Its value is “significantly regulates”.

Question: And the “suppression of IL-8 protein secretion caused by TNF-alpha stimulation” value ([2]; pre-treatment with recombinant TB-4, TNF-alpha 6 hours, ELISA)?
Answer: Its value is “greater than 50%”.

Question: What about the “suppression of IL-8 gene expression caused by TNF-alpha stimulation” value ([2]; pre-treatment with recombinant TB-4, TNF-alpha 6 hours, qPCR) of the same molecule?
Answer: Its value is “greater than 50%”.
